For 3 compounds, residual activity results are on record in ChEMBL document CHEMBL1152560, “Substituted 2-arylbenzothiazoles as kinase inhibitors: hit-to-lead optimization” (Bioorg Med Chem, 2009).

In assay [1] the target is Homeodomain-interacting protein kinase 1 (Homo sapiens) (UniProt Q86Z02). The experiment in a line: Residual activity of HIPK1 at 1 uM by microplate scintillation counting.
Assay [2] has as its target Mitogen-activated protein kinase 8 (Homo sapiens) (UniProt P45983). Description: Residual activity of JNK1 at 0.1 uM by microplate scintillation counting.
Assay [3] has as its target Serine/threonine-protein kinase MARK1 (Homo sapiens) (UniProt Q9P0L2). The experiment in a line: Residual activity of MARK1 at 0.1 uM by microplate scintillation counting.
For assay [4], the target named is Macrophage-stimulating protein receptor (Homo sapiens) (UniProt Q04912). The experiment in a line: Residual activity of RON at 1 uM by microplate scintillation counting.
Assay [5] has as its target T1, Interleukin-1 receptor-associated kinase 4 (Homo sapiens) (UniProt Q9NWZ3).
T1 sequence (whole entry): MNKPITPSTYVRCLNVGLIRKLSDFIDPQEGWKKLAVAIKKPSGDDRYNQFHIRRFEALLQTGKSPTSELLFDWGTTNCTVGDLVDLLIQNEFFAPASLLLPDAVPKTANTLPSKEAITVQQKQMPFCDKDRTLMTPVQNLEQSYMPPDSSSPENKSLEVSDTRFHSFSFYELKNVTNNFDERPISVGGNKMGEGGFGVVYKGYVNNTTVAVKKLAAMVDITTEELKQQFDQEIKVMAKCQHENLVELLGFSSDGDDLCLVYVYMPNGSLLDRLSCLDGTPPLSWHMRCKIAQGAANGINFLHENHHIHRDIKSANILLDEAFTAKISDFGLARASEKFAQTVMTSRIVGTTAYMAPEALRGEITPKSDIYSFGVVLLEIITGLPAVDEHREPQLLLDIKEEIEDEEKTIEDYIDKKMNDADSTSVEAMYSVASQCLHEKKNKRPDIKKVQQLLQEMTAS
The experiment in a line: Residual activity of IRAK4 at 10 uM by microplate scintillation counting.

The target of assay [6] is T2, Aurora kinase A (Homo sapiens) (UniProt O14965).
T2 sequence (whole entry): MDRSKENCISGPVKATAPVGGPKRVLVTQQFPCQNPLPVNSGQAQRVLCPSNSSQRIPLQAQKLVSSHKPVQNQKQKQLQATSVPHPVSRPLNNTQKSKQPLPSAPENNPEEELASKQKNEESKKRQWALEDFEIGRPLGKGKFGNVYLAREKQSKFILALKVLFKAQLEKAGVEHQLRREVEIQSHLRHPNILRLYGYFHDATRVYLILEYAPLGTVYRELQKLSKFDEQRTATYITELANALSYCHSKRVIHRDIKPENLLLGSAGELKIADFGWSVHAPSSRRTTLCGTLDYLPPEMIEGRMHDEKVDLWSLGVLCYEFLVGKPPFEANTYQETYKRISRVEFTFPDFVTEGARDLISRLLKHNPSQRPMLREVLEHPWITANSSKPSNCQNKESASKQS
The experiment in a line: Residual activity of Aurora-A at 1 uM by microplate scintillation counting.

For assay [7], the target named is Cyclin-dependent kinase 2/cyclin A (Homo sapiens) (UniProt P24941+P20248+P78396). The experiment in a line: Residual activity of CDK2/Cyclin A at 10 uM by microplate scintillation counting. The assay is classed as protein-complex assay.
In assay [8] the target is Cyclin-dependent kinase 2/cyclin E1 (Homo sapiens) (UniProt P24864+P24941). Description: Residual activity of CDK2/Cyclin E at 0.1uM by microplate scintillation counting. The assay is classed as protein-complex assay.
Assay [9] concerns the target CDK4/Cyclin D3 (Homo sapiens) (UniProt P11802+P30281). The experiment in a line: Residual activity of CDK4/Cyclin D3 at 0.1 uM by microplate scintillation counting. The assay is classed as protein-complex assay.
Assay [10] deals with T3, Serine/threonine-protein kinase D2 (Homo sapiens) (UniProt Q9BZL6).
T3 sequence (whole entry): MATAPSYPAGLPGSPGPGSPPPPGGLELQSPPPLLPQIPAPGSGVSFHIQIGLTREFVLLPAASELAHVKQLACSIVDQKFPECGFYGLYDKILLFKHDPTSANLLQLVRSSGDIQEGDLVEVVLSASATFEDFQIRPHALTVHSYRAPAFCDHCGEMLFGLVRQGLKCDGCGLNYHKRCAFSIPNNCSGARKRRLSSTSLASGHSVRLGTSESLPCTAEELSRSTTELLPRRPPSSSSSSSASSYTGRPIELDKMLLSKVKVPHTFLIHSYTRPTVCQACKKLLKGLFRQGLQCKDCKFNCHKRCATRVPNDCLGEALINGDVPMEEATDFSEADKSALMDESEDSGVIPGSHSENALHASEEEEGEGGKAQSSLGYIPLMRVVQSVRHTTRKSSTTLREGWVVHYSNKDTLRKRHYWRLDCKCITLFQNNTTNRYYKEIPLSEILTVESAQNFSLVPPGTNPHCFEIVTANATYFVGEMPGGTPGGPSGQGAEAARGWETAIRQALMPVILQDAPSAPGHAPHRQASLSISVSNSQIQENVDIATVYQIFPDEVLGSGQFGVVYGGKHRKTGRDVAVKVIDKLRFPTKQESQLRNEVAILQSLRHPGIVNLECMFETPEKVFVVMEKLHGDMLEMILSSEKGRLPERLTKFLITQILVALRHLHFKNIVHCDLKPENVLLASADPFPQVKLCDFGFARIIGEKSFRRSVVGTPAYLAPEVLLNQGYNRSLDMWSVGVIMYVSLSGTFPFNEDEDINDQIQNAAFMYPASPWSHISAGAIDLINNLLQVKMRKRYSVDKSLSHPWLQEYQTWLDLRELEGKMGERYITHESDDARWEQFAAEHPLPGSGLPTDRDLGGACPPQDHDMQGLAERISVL
Description: Residual activity of PRKD2 at 0.1 uM by microplate scintillation counting.

Mitogen-activated protein kinase 8 (Homo sapiens), sequence (P45983 whole entry): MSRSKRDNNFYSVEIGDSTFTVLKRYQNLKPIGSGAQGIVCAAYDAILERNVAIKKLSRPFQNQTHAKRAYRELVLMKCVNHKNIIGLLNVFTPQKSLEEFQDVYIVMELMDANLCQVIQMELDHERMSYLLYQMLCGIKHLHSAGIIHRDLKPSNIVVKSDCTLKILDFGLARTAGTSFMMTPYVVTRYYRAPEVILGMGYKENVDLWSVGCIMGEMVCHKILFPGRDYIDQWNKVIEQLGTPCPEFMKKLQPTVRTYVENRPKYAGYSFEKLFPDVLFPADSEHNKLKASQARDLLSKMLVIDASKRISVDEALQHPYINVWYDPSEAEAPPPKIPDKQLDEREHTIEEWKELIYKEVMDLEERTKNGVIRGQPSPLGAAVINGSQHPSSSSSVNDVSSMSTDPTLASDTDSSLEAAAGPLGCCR
Serine/threonine-protein kinase MARK1 (Homo sapiens), sequence (Q9P0L2 whole entry, looked up): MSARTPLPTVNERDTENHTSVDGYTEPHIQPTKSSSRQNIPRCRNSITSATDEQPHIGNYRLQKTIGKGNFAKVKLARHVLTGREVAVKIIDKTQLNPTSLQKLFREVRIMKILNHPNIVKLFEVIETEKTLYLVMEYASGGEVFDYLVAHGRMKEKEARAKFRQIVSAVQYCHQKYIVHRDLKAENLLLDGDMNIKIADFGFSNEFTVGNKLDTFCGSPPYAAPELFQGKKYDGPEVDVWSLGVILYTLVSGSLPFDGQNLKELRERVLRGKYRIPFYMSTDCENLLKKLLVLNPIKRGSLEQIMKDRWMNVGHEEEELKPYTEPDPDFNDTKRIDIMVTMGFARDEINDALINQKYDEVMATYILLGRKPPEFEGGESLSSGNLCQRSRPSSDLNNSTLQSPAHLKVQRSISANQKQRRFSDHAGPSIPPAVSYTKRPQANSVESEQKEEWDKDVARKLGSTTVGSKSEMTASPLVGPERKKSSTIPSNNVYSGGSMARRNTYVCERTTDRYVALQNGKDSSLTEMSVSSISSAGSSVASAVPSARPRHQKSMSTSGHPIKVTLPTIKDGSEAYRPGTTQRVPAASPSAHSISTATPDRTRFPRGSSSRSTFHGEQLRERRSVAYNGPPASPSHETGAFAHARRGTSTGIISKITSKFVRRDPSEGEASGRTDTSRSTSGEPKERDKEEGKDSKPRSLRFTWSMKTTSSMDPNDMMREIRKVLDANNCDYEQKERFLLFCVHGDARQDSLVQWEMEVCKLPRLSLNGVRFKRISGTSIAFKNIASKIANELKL
Macrophage-stimulating protein receptor (Homo sapiens), sequence (Q04912 25-304 limits assumed): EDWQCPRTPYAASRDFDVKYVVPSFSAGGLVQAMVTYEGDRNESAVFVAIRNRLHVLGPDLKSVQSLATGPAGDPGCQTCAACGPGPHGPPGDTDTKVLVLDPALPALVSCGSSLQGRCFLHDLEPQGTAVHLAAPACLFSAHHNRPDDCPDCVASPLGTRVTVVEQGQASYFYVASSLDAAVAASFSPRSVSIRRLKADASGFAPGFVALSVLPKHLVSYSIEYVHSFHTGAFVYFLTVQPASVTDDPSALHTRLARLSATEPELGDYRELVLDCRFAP
Macrophage-stimulating protein receptor (Homo sapiens), sequence (Q04912 310-1400 limits assumed): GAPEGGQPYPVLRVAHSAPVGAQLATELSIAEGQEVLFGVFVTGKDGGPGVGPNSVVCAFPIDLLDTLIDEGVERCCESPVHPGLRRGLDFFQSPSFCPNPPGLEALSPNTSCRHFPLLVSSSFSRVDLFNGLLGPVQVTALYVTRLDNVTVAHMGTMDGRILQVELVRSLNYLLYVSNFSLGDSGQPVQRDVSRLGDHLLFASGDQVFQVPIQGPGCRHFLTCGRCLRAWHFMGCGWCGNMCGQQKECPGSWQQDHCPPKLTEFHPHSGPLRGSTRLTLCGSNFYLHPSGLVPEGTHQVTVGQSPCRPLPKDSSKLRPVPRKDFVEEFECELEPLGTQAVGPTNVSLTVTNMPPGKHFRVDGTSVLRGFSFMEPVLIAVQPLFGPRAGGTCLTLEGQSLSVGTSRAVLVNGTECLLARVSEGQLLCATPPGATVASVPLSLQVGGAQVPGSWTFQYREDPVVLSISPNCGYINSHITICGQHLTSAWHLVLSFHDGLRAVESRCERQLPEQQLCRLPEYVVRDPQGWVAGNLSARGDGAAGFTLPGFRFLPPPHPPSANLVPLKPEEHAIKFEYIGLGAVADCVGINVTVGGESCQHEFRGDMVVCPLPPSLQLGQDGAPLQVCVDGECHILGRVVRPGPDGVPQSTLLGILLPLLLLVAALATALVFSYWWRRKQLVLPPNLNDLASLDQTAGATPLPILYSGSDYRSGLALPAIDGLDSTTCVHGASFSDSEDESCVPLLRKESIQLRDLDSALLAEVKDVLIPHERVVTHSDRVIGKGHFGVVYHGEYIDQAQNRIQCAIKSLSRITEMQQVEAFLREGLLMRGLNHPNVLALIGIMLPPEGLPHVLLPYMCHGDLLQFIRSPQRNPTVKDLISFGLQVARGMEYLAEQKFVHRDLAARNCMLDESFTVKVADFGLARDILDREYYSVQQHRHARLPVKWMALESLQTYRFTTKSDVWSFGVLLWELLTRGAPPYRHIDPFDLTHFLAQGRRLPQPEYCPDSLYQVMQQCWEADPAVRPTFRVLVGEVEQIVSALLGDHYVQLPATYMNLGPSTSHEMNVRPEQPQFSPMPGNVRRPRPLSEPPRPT
Homeodomain-interacting protein kinase 1 (Homo sapiens), sequence (Q86Z02 whole entry, looked up): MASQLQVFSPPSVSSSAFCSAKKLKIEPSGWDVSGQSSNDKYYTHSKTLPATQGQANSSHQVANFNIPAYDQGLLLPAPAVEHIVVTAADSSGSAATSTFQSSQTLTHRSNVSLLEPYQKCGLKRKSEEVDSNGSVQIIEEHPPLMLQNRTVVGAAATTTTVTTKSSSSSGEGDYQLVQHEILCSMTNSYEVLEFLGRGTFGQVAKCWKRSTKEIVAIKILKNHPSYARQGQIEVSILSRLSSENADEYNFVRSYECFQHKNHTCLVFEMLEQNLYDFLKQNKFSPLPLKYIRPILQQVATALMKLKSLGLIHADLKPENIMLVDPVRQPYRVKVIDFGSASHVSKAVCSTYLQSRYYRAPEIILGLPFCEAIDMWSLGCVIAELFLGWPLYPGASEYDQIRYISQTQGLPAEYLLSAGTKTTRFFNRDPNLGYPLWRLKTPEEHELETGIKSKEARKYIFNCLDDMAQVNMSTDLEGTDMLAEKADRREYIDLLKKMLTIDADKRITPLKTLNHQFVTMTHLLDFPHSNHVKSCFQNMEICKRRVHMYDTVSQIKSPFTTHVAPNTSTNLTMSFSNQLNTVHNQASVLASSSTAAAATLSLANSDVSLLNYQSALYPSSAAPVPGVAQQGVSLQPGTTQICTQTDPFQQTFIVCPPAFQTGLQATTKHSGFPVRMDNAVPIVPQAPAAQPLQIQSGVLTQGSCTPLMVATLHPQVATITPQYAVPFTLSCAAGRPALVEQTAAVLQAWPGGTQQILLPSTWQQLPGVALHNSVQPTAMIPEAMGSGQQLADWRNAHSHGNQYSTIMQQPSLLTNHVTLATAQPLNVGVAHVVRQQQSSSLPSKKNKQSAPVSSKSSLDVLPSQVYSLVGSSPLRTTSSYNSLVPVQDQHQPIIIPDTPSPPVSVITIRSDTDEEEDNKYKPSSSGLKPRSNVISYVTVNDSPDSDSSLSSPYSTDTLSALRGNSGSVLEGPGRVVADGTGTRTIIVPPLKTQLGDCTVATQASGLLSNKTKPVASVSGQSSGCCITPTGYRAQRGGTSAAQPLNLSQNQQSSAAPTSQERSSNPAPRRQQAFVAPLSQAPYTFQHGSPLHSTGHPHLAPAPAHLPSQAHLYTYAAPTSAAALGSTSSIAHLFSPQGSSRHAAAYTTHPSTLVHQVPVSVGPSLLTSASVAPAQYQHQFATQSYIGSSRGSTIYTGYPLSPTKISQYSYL

As to `COc1cc2c(Oc3ccc(-c4nc5ccccc5s4)cc3)ncnc2cc1OCCCN1CCCC1`, the residual activity in [1] turned out to be 77%; in [2], 106%; in assay [3] it was 90%; in assay [4], 60%; in [5], 26%; in assay [6], 25%. Also, the residual activity in assay [7] was found to be 79%; in assay [8], 93%; in assay [9] it was 80%; in assay [10] it was 89%.

For the compound `COc1cc2c(Oc3ccc(-c4nc5ccccc5s4)cc3F)ncnc2cc1OCCCN1CCN(C)CC1`, the residual activity in assay [1] came out at 81%; in assay [2], 101%; in [3], 91%; in [4], 35%; in assay [5], 34%; in assay [6], 28%. Moreover, the residual activity in [7] amounted to 73%; in assay [8], 92%; in [9] it was 82%; in assay [10], 95%.

`COc1cc2c(Oc3ccc(-c4nc5ccccc5s4)cc3)ncnc2cc1OCCCN1CCN(C)CC1`: the residual activity in [1] stood at 82%; in assay [2], 98%; in [3], 98%; in assay [4], 48%; in [5], 36%; in assay [6], 22%. The residual activity in [7] is 84%; in assay [8], 86%; in assay [9], 98%; in assay [10], 82%.
